# Measurements published in patent US7019109B2, “SSTR1-selective analogs” (The Salk Institute for Bilogical Studies, priority 2001, dated 2006).
# Like-named read-outs stand apart in the source and are kept apart here. *1 amine or outer side, *2 acyl side, *3 side chain or, on linkers, in order; H or OH if unused. Where a SMILES comes first, the peptide text is derived from it. Bridges are numbered along the chain shown (N, C = ends). [ ]: non-standard residue; d: D form. The star is where a group is joined. NMePhe(4-CH2NHiPr) = CN[C@@H](Cc1ccc(CNC(C)C)cc1)C(=O)O; Phe(4-CH2NHiPr) = CC(C)NCc1ccc(C[C@H](N)C(=O)O)cc1; X3 = NC(=O)N[C@@H](Cc1ccc(O)c(I)c1)C(=O)*; X1 = NC(=O)N[C@@H](CS[*:2])C(=O)[*:1]; d2Nal = N[C@H](Cc1ccc2ccccc2c1)C(=O)O; X2 = NC(=O)N[C@H](CS[*:2])C(=O)[*:1]
# How the values were obtained:
# Type in all cases: binding
# [1] = target: T1, human SSTR4 (Homo sapiens, UniProt P31391); test: Displacement of 125I-[Leu8,D-Trp22,Tyr25]-SRIF-28 from cloned SSTR4 (receptor autoradiography); details: for IC50: read-out: IC50 (nM) mSSTR4
# T1 construct: expressed in transfected cells; host or cells: CHO-K1 cells and CCL39 cells
# T1 sequence (P31391 whole entry): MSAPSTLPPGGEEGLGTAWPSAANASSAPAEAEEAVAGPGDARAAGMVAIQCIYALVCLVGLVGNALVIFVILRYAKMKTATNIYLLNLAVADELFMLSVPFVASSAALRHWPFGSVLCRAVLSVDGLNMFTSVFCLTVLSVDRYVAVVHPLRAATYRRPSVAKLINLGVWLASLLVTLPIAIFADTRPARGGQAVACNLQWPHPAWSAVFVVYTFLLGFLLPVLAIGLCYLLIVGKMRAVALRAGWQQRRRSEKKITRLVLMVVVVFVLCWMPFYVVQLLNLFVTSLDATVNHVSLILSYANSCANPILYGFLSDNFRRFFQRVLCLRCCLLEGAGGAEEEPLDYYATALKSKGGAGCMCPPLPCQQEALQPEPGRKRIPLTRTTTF
# Method: (§1) Generally, recombinant cells expressing the receptor are washed and homogenized to prepare a crude protein homogenate that is frozen, embedded and then cut in 10–20 μm thin sections, as known in this art. Candidate substances, such as potential SRIF agonists and antagonists, are incubated with the tissue sections, and the interaction between the candidate substance and the receptor polypeptide is monitored.
# (§2) Receptor binding assays are performed on cloned SRIF receptors as generally set forth in Reubi, J. C. et al., J. Clin. Endocrinol. […] Med. 2000, 27, 273–282.
# (§3) In vitro Bioassay: The various somatostatin analogs are tested in vitro for their ability to bind to isolated cloned receptors expressed on CHO-K1 cells and CCL39 cells. CHO-K1 cells are grown in Ham's F-12 medium, and CCL39 cells are grown in Dulbecco's modified Eagle's medium/Ham's F-12(1:1) mix, supplemented with 10% fetal bovine serum, 100 U/ml penicillin and 100 μg/ml streptomycin, in humidified air containing 5% CO2 at 37° C.
# (§4) Cells are washed and prepared to produce homogenates as described in detail in Reubi, J. C. et al, Eur. J. Nucl. Med. 2000, 27, 273–282.
# (§5) Receptor autoradiography is performed on 20 μm thick cryostat sections of the membrane pellets, mounted on microscope slides, and then stored at −20° C. […] Increasing concentrations of the unlabeled peptide are used ranging from 0.1–1000 nM. […] IC50 values are calculated after quantification of the data using a computer-assisted image processing system as known in this art.
# [2] = target: T2, human SSTR3 (Homo sapiens, UniProt P32745); test: Displacement of 125I-[Leu8,D-Trp22,Tyr25]-SRIF-28 from cloned SSTR3 (receptor autoradiography); details: for IC50: read-out: IC50 (nM) mSSTR3
# T2 construct: expressed in transfected cells; host or cells: CHO-K1 cells and CCL39 cells
# T2 sequence (P32745 whole entry): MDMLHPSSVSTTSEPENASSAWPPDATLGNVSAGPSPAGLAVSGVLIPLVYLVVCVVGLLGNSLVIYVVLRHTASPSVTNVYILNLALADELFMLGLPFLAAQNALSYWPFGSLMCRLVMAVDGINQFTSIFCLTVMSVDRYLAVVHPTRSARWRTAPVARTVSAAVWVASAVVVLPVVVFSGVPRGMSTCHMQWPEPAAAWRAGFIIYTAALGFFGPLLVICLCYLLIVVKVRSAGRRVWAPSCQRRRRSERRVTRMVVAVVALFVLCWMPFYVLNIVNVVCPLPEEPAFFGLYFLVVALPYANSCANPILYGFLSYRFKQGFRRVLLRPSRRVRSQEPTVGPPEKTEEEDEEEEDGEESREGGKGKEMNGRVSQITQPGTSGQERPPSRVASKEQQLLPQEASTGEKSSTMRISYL
# Method: as §1, §2, §3, §4, §5
# [3] = target: T3, human SSTR2 (Homo sapiens, UniProt P30874); test: Displacement of 125I-[Leu8,D-Trp22,Tyr25]-SRIF-28 from cloned SSTR2 (receptor autoradiography)
# T3 construct: expressed in transfected cells; host or cells: CHO-K1 cells and CCL39 cells
# T3 sequence (P30874 whole entry): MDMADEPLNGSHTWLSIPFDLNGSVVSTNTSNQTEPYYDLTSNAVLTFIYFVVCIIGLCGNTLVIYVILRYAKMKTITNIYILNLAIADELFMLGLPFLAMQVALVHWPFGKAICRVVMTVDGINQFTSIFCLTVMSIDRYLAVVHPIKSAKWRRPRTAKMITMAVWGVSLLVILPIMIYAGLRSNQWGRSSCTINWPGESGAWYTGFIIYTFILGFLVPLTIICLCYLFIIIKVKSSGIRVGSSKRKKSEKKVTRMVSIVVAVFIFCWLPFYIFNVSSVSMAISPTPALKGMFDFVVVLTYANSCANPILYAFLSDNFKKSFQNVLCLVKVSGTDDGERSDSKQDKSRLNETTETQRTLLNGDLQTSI
# Method: as §1, §2, §3, §4
# (§6) Receptor autoradiography is performed on 20 μm thick cryostat sections of the membrane pellets, mounted on microscope slides, and then stored at −20° C. […] […] […] IC50 values are calculated after quantification of the data using a computer-assisted image processing system as known in this art.
# [4] = target: T4, human SSTR5 (Homo sapiens, UniProt P35346); test: Displacement of 125I-[Leu8,D-Trp22,Tyr25]-SRIF-28 from cloned SSTR5 (receptor autoradiography)
# T4 construct: expressed in transfected cells; host or cells: CHO-K1 cells and CCL39 cells
# T4 sequence (P35346 whole entry): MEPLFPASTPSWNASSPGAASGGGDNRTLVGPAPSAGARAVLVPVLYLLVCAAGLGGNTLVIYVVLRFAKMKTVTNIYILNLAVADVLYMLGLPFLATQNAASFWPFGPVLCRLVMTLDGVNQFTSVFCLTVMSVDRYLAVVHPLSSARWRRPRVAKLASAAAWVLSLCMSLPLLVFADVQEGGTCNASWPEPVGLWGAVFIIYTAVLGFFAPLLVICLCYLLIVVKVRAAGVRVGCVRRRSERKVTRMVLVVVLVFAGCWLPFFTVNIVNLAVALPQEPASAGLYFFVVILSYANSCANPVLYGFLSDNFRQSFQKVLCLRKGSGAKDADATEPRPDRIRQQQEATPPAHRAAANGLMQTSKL
# Method: as §1, §2, §3, §4, §6
# [5] = target: T5, human SSTR1 (Homo sapiens, UniProt P30872); test: Displacement of 125I-[Leu8,D-Trp22,Tyr25]-SRIF-28 from cloned SSTR1 (receptor autoradiography)
# T5 construct: expressed in transfected cells; host or cells: CHO-K1 cells and CCL39 cells
# T5 sequence (P30872 whole entry): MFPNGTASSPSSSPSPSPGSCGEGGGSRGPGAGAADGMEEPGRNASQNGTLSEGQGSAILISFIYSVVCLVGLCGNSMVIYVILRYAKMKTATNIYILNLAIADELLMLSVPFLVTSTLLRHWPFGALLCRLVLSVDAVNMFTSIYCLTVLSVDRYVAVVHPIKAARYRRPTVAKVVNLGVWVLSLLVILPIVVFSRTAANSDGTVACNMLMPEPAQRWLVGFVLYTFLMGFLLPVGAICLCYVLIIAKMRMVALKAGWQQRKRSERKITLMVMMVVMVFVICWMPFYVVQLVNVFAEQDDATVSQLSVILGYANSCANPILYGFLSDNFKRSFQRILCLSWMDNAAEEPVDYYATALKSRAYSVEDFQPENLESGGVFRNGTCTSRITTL
# Method: as §1, §2, §3, §4, §5
# [6] = inhibition of radioligand binding of 125I-[Leu8,D-Trp22,Tyr24]SRIF-28, cloned receptor, table, read-out: IC50 (nM) mSSTR1
IC50 [1] [nM],IC50 [2] [nM],IC50 ([3]; read-out: IC50 (nM) mSSTR2) [nM],IC50 ([4]; read-out: IC50 (nM) mSSTR5) [nM],"IC50 [5, 6] [nM]","IC50 ([5]; unit inferred, read-out: IC50 / binding affinity at SSTR1, unit inferred) [nM]","binding to SSTR4, in words ([1]; Peptide No. 27 iodinated)",effect on binding of the SRIF-28 radioligand to human SSTR4 ([1]; at concentrations of 100 nM),"binding to SSTR3, in words ([2]; Peptide No. 27 iodinated)",effect on binding of the SRIF-28 radioligand to human SSTR3 ([2]; at concentrations of 100 nM),effect on binding of the SRIF-28 radioligand to human SSTR2 ([3]; at concentrations of 100 nM),"IC50 ([3]; inhibition of radioligand binding of 125I-[Leu8,D-Trp22,Tyr24]SRIF-28, cloned receptor, table, read-out: IC50 (nM) mSSTR2) [nM]",IC50 ([3]; read-out: concentration below which no binding to SSTR2) [nM],effect on binding of the SRIF-28 radioligand to human SSTR5 ([4]; at concentrations of 100 nM),"IC50 ([4]; inhibition of radioligand binding of 125I-[Leu8,D-Trp22,Tyr24]SRIF-28, cloned receptor, table, read-out: IC50 (nM) mSSTR5) [nM]",IC50 ([4]; read-out: concentration below which no binding to SSTR5) [nM],"IC50 ([5]; displacement of iodinated SRIF-28 radioligand, read-out: IC50 / binding affinity at human SSTR1) [nM]",Structure (SMILES)
> 1000,290,> 1000,> 1000,34.7,–,–,–,–,–,–,–,–,–,–,–,–,CC(C)NCc1ccc(C[C@@H]2NC(=O)[C@@H](Cc3c[nH]c4ccccc34)NC(=O)[C@H](Cc3ccccc3)NC(=O)[C@H](Cc3ccccc3)NC(=O)[C@H](CCCCN)NC(=O)[C@@H](NC(=O)[C@H](Cc3ccc(O)c(I)c3)NC(N)=O)CSSC[C@@H](C(=O)O)NC(=O)[C@H](CO)NC(=O)[C@H]([C@@H](C)O)NC(=O)[C@H](Cc3ccccc3)NC(=O)[C@H]([C@@H](C)O)NC2=O)cc1 [Peptide No. 14B] (X3-CKFF[dW][Phe(4-CH2NHiPr)]TFTSC-OH; disulfide 1-11)
> 10000,> 1000,> 10000,> 10000,32,~32,–,–,–,–,–,–,–,–,–,–,–,"CC(C)NCc1ccc(C[C@H]2C(=O)N[C@@H]([C@@H](C)O)C(=O)N[C@@H](Cc3ccc(O)cc3)C(=O)N[C@@H]([C@@H](C)O)C(=O)N[C@@H](CO)C(=O)N[C@H](C(=O)O)CSSC[C@H](NC(N)=O)C(=O)N[C@@H](CCCCN)C(=O)N[C@@H](Cc3ccccc3)C(=O)N[C@@H](Cc3ccccc3)C(=O)N[C@H](Cc3ccc4ccccc4c3)C(=O)N2C)cc1 [Peptide No. 16, (cyclo)CbmCys-Lys-Phe-Phe-D-2Nal-N^αMeIAmp-Thr-Tyr-Thr-Ser-Cys-OH] (KFF[d2Nal][NMePhe(4-CH2NHiPr)]TYTSC-OH; linker N-10 via X1)"
> 10000,> 1000,> 10000,> 1000,17.4,–,–,–,–,–,–,–,–,–,–,–,–,"CC(C)NCc1ccc(C[C@@H]2NC(=O)[C@@H](Cc3c[nH]c4ccccc34)NC(=O)[C@H](Cc3ccccc3)NC(=O)[C@H](Cc3ccccc3)NC(=O)[C@H](CCCCN)NC(=O)[C@H](NC(N)=O)CSSC[C@@H](C(=O)O)NC(=O)[C@H](CO)NC(=O)[C@H]([C@@H](C)O)NC(=O)[C@H](Cc3ccc(O)cc3)NC(=O)[C@H]([C@@H](C)O)NC2=O)cc1 [Peptide No. 12C, (cyclo)CbmD-Cys-Lys-Phe-Phe-D-Trp-IAmp-Thr-Tyr-Thr-Ser-Cys-OH] (KFF[dW][Phe(4-CH2NHiPr)]TYTSC-OH; linker N-10 via X2)"
> 1000,> 1000,–,–,7.2,–,does not bind strongly,minimal effects,does not bind strongly,minimal effects,minimal effects,> 10000,> 10000,minimal effects,> 10000,> 10000,~6.1,"CC(C)NCc1ccc(C[C@H]2C(=O)N[C@@H]([C@@H](C)O)C(=O)N[C@@H](Cc3ccc(O)cc3)C(=O)N[C@@H]([C@@H](C)O)C(=O)N[C@@H](CO)C(=O)N[C@H](C(=O)O)CSSC[C@H](N)C(=O)N[C@@H](CCCCN)C(=O)N[C@@H](Cc3ccccc3)C(=O)N[C@@H](Cc3ccccc3)C(=O)N[C@H](Cc3c[nH]c4ccccc34)C(=O)N2C)cc1 [Peptide No. 2, (cyclo)H-Cys-Lys-Phe-Phe-D-Trp-N^αMeIAmp-Thr-Tyr-Thr-Ser-Cys-OH] (H-CKFF[dW][NMePhe(4-CH2NHiPr)]TYTSC-OH; disulfide 1-11)"
